Reference: ChEMBL document CHEMBL1201862, “PubChem BioAssay data set” (2004)
Calls of active or inactive are those of the source.

Assays:
[1] = tested on: Streptococcus sp. 'group A'; test: growth inhibition of control SK(-) GAS strain, dose response, counter-screen for streptokinase expression inhibitor project, luminescence, kanamycin, BacTiterGlo, confirmation (AID 1900); assay type: functional, organism-based
BJ [2] = test: cytotoxicity toward BJ-TERT fibroblasts, dose response, cell-based, RAS-independent, luminescence (AID 1933); assay type: functional; conditions: Homo sapiens
Streptokinase A = target: T1, Streptokinase A (Streptococcus pyogenes serotype M1, UniProt P10520); test: S. pyogenes streptokinase expression inhibitors, potency, dose response, plasminogen activation absorbance, OD405 (AID 1914); assay type: functional, Streptococcus pyogenes M1 GAS;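 also: secreted streptokinase activity via plasminogen activation per viability signal from cell pellet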
T1 sequence (P10520 whole entry): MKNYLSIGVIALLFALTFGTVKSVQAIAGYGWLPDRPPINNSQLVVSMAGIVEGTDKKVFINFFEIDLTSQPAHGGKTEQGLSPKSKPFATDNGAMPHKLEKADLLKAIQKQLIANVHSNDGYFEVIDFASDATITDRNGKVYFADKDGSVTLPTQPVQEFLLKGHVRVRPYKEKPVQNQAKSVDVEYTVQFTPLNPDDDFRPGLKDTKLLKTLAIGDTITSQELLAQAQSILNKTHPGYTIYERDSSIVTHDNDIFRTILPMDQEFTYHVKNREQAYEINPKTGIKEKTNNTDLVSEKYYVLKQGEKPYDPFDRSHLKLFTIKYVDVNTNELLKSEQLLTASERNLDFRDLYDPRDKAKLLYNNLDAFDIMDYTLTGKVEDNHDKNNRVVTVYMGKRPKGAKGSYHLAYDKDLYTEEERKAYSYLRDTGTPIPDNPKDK

BJ [3] = test: cells; assay type: functional, cell-based; conditions: Homo sapiens
Large T antigen = Large T antigen (Simian virus 40, UniProt P03070); assay type: functional, Betapolyomavirus macacae;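 also: Confirmatory-stage PubChem screen for compounds that inhibit SV40 T antigen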
[4] = target: Luciferin 4-monooxygenase (Photinus pyralis, UniProt P08659); test: firefly luciferase enzyme inhibitors, dose response, biochemical, luminescence (AID 1891)
[5] = Luminescence Cell-Based Dose Confirmation HTS to Identify Inhibitors of Platelet Dense Granule Release. [Related pubchem assays: 1663 (Primary HTS), 1678 (Summary of Project)]; assay type: functional
BJ [6] = test: cytotoxicity toward BJ-TERT-LT-ST fibroblasts, dose response, cell-based, RAS-independent, luminescence (AID 1935); assay type: functional; conditions: Homo sapiens;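 also: BJ fibroblasts immortalized with TERT plus LT and ST oncogenes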
[7] = cytotoxicity toward DRD oncogenic fibroblasts, dose response, cell-based, non-viral oncogenic, luminescence (AID 1934); assay type: functional; conditions: Homo sapiens
Streptococcus = test: Group A Streptococcus viability loss, dose response, counter-screen for streptokinase expression inhibitor project, luminescence, BacTiterGlo (AID 1915); assay type: functional, organism-based;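 also: potency for reduction of bacterial viability or growth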
HEK293 = test: inhibitors of LMP1-driven NF-kB reporter, dose response, cell-based, HEK293, luciferase, cherry-pick (AID 588343); assay type: functional; conditions: Homo sapiens
[8] = target: T2, High affinity choline transporter 1 (Homo sapiens, UniProt Q9GZV3); test: CHT inhibitors, dose response, cell-based, 5-point CRC, membrane potential dye (AID 504840); assay type: functional
T2 sequence (Q9GZV3 whole entry): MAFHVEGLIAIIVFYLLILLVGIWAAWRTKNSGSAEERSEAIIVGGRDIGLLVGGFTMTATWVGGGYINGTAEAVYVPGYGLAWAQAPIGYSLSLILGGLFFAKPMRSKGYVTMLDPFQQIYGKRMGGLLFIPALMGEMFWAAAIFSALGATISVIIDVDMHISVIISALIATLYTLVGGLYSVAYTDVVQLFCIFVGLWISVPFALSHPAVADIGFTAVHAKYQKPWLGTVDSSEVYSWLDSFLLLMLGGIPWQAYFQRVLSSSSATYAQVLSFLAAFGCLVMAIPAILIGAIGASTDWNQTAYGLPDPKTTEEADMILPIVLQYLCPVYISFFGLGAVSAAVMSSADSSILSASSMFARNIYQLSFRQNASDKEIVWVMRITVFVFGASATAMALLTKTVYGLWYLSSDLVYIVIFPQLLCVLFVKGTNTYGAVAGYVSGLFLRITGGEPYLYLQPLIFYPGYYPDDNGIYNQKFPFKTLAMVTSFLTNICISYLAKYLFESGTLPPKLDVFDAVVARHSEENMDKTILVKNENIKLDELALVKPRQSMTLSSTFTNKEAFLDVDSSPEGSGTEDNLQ

Vero = Vero cell cytotoxicity, cytotoxicity control for flavivirus capping enzyme inhibitors (AID 588742); assay type: functional; conditions: Chlorocebus sabaeus
BJ [9] = test: cytotoxicity toward Ras-transformed BJeLR fibroblasts, dose response, cell-based, alamar blue fluorescence, cherrypicked samples (AID 2631); assay type: functional; conditions: Homo sapiens;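 also: confirmatory dose-response assay in RAS-dependent BJ fibroblasts engineered with TERT, LT and ST, with cytotoxicity read by fluorescence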
Genome polyprotein = Genome polyprotein (dengue virus type 2, UniProt P29990); test: Dengue-2 NS5 methyltransferase inhibitors, primary screen, biochemical, confirmation dose response (AID 588689); assay type: functional
[10] = Shn3 3'UTR reporter inhibitors, dose response, cell-based, Clone20 osteoblasts, firefly luciferase, cherry-picked (AID 624132); assay type: functional;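 also: firefly luciferase luminescence from reporter carrying the Shn3 3'UTR in osteoblasts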
[11] = HepG2 cell cytotoxicity, dose response, cytotoxicity control for Shn3 inhibitor project, CellTiter-Glo, cherry-picked (AID 624134); assay type: functional, cell-based
[12] = control 3'UTR Renilla luciferase suppression, dose response, counter-screen for Shn3 inhibitor project, cell-based, Clone20-Shn3RL, cherry-picked (AID 624133); assay type: functional
Fatty acid synthase [13] = target: T3, Fatty acid synthase (Homo sapiens, UniProt P49327); test: FAS thioesterase domain inhibitors, dose response, biochemical, endpoint fluorescence intensity, uHTS hits (AID 624327); assay type: functional;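 also: fluorescence from hydrolysis of an O-methyl fluorescein acyl ester substrate by the enzyme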
Fatty acid synthase [14] = target: T3, Fatty acid synthase; test: FAS thioesterase domain inhibitors, dose response, biochemical, kinetic fluorescence intensity (AID 624326); assay type: functional;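 also: rate of fluorescence rise from hydrolysis of a fluorogenic O-methyl fluorescein ester substrate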
Paired box protein Pax-8 = Paired box protein Pax-8 (Homo sapiens, UniProt Q06710); test: inhibitors of PAX8-driven TPO luciferase reporter, dose response, RMG-I cells, cherry-pick (AID 687027); assay type: functional, cell-based;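 also: luciferase reporter driven by Pax8 target thyroperoxidase promoter measured by SteadyGlo luminescence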
[15] = non-specific cell cytotoxicity, dose response, cytotoxicity control for PAX8 inhibitor project, plate reader, dry powder samples (AID 743021); assay type: functional, cell-based
H9c2 = test: cells; assay type: functional, cell-based; conditions: Rattus norvegicus, H9c2, Myocardium
[16] = HEp-2 cell cytotoxicity, dose response, cytotoxicity control for RSV inhibitor project, HTS (AID 2410); assay type: functional; conditions: human respiratory syncytial virus
Caspase-3 = target: T4, Caspase-3 (Homo sapiens, UniProt P42574); assay type: functional;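 also: Dose-response selectivity test against caspase-3 for candidate inhibitors of sentrin-specific proteases (SENPs)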
T4 sequence (P42574 whole entry): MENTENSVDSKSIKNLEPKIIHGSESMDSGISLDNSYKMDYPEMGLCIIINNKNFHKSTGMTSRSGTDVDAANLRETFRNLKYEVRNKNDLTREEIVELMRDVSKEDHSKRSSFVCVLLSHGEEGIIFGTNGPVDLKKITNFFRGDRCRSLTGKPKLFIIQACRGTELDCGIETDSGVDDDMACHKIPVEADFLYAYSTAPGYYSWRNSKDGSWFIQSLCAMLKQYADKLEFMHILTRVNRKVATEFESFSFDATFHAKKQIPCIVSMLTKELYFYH

[17] = target: T5, Sentrin-specific protease 7 (Homo sapiens, UniProt Q9BQF6); assay type: functional;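 also: Luminescence-based dose-response confirmation of ultra-high-throughput screening hits, measuring inhibition of SENP7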
T5 sequence (Q9BQF6 whole entry): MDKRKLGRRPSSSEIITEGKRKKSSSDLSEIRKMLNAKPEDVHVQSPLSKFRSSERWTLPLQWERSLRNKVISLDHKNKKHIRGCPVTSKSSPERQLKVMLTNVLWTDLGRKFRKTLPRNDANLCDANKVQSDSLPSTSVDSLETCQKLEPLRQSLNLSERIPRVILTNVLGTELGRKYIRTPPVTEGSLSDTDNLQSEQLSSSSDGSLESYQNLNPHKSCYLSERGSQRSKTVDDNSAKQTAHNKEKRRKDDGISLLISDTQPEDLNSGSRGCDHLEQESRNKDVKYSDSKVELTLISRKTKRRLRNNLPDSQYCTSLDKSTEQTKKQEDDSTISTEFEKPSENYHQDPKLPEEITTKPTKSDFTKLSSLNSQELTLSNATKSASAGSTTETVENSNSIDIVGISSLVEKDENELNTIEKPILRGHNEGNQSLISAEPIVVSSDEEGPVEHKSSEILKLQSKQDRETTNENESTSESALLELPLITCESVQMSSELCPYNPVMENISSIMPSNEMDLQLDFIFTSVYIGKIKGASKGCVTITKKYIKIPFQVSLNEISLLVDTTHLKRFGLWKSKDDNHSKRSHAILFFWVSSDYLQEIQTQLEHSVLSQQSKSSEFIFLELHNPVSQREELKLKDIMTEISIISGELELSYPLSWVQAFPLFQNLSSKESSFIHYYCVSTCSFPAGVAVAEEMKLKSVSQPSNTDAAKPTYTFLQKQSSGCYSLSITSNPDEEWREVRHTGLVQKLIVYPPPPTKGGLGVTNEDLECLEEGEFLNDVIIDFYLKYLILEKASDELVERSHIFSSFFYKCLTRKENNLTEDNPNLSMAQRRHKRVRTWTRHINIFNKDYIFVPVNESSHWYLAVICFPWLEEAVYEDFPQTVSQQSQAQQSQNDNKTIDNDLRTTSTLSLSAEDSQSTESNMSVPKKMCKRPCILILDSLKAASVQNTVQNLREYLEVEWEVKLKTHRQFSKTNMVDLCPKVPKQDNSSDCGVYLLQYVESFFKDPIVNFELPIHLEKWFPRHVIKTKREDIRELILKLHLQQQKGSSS

[18] = target: T6, Sentrin-specific protease 6 (Homo sapiens, UniProt Q9GZR1); assay type: functional;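 also: Luminescence-based dose-response confirmatory assay of SENP6 inhibition, following up an ultra-high-throughput screen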
T6 sequence (Q9GZR1 whole entry): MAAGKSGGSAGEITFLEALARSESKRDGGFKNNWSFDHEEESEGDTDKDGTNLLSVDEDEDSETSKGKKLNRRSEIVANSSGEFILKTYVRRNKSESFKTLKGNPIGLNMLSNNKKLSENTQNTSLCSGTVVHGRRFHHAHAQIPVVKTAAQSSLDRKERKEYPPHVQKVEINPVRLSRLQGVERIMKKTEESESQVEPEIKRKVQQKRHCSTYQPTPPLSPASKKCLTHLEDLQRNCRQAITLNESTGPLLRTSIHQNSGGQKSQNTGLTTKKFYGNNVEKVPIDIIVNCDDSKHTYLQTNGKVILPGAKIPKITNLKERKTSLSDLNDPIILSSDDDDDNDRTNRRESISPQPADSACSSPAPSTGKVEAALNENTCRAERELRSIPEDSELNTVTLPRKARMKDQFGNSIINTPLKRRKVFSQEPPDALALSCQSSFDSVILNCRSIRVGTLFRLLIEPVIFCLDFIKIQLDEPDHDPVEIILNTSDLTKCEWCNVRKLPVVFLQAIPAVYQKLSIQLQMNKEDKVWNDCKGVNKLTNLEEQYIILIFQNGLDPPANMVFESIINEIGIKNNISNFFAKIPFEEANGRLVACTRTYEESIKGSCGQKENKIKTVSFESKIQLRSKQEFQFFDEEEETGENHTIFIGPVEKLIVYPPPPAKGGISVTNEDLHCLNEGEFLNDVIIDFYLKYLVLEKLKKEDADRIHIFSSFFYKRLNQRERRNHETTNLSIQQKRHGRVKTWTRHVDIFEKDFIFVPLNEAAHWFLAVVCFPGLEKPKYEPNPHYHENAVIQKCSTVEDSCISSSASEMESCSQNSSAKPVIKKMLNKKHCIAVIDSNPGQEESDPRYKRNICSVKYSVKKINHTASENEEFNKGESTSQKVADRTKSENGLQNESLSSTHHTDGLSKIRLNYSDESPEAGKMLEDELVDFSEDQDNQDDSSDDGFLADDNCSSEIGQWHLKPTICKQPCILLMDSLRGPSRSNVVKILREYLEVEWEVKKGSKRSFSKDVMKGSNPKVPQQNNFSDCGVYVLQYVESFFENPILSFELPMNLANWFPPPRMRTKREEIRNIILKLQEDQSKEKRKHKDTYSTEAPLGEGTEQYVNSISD

[19] = target: T7, Sentrin-specific protease 8 (Homo sapiens, UniProt Q96LD8); assay type: functional;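 also: luminescence read-out of SENP8 inhibition, dose-response confirmation following an ultra-high-throughput screen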
T7 sequence (Q96LD8 whole entry): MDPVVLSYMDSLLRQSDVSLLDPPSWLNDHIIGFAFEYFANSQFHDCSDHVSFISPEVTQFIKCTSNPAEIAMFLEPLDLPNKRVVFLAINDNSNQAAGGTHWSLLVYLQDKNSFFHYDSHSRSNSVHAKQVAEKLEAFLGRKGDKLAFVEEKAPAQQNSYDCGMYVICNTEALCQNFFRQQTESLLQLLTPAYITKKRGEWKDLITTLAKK

T3 sequence (P49327 whole entry, the tested form may be a part): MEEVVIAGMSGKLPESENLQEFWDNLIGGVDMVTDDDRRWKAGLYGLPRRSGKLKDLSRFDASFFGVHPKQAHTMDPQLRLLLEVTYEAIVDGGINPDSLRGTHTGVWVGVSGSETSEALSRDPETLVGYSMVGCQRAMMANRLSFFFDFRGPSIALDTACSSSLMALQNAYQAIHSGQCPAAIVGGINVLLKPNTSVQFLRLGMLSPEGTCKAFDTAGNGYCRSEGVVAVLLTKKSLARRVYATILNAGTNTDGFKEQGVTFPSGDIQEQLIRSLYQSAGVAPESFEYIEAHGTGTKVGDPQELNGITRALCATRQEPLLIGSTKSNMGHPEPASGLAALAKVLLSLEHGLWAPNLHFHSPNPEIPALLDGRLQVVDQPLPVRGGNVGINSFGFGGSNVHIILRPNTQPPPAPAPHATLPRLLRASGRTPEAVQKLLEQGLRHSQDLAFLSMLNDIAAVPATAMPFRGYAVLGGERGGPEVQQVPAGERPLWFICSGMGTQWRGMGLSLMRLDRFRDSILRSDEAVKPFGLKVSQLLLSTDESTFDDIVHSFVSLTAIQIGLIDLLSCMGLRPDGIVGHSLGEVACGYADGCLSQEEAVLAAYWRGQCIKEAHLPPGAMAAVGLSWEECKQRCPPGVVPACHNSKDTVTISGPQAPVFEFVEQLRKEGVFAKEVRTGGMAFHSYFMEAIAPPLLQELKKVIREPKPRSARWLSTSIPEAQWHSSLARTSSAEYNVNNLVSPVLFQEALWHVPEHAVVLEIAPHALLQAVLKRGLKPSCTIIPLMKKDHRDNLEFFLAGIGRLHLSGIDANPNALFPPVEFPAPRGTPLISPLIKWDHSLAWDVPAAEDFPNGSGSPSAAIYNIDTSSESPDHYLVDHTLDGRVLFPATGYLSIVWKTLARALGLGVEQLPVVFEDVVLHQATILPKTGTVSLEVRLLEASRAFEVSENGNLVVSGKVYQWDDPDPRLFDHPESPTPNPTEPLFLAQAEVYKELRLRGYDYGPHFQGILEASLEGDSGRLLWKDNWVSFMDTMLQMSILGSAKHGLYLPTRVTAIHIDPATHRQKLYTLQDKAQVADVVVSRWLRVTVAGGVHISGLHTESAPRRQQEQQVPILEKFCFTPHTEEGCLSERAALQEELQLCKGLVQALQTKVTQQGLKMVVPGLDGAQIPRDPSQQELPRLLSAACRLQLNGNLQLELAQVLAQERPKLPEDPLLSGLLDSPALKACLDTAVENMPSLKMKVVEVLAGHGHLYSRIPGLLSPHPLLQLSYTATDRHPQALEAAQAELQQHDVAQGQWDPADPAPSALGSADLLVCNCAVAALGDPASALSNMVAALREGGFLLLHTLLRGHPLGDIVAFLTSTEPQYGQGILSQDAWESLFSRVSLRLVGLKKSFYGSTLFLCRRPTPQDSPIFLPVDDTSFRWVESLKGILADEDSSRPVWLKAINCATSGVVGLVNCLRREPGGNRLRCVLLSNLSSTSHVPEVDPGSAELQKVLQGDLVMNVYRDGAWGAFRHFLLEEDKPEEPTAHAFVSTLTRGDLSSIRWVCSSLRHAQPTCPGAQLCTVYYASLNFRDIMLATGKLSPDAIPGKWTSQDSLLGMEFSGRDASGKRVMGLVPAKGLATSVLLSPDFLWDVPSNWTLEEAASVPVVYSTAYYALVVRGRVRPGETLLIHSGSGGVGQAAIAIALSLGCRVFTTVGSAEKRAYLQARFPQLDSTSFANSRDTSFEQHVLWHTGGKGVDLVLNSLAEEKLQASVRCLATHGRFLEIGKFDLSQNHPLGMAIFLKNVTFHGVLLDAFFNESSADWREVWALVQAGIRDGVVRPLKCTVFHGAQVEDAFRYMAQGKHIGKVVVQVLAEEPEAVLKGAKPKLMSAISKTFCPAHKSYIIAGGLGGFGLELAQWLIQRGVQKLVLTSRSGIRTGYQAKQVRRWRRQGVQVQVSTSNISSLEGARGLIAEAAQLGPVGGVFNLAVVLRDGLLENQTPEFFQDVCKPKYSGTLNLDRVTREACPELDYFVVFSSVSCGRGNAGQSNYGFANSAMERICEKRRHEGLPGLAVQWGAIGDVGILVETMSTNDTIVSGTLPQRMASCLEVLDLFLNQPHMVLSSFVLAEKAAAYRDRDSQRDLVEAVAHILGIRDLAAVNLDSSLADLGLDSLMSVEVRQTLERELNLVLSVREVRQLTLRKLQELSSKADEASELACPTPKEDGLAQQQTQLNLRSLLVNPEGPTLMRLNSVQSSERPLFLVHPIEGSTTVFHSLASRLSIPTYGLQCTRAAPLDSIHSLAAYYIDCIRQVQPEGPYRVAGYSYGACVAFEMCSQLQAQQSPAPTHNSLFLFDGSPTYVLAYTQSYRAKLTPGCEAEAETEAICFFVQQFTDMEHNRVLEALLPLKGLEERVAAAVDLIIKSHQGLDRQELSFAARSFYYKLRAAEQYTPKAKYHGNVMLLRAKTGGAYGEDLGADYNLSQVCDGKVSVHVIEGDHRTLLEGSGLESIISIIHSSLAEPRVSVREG
Large T antigen, sequence (P03070 whole entry): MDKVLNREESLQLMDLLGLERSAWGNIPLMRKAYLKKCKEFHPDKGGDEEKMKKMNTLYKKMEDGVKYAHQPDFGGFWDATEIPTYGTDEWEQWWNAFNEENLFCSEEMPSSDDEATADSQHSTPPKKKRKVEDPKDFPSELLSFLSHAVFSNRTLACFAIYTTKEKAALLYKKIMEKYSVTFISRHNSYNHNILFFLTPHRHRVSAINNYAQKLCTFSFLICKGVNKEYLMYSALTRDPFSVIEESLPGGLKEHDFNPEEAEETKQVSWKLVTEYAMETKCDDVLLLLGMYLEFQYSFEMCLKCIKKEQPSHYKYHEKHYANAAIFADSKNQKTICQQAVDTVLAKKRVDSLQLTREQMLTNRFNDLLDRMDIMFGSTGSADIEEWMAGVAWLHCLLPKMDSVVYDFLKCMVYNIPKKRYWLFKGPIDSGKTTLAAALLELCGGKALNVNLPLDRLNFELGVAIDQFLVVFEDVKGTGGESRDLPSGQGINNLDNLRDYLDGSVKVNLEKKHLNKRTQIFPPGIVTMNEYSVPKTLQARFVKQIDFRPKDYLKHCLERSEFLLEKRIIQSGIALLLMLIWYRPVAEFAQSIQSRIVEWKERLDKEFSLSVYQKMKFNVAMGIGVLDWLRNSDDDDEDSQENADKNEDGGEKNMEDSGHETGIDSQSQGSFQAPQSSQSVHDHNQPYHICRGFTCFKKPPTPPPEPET
Luciferin 4-monooxygenase, sequence (P08659 whole entry): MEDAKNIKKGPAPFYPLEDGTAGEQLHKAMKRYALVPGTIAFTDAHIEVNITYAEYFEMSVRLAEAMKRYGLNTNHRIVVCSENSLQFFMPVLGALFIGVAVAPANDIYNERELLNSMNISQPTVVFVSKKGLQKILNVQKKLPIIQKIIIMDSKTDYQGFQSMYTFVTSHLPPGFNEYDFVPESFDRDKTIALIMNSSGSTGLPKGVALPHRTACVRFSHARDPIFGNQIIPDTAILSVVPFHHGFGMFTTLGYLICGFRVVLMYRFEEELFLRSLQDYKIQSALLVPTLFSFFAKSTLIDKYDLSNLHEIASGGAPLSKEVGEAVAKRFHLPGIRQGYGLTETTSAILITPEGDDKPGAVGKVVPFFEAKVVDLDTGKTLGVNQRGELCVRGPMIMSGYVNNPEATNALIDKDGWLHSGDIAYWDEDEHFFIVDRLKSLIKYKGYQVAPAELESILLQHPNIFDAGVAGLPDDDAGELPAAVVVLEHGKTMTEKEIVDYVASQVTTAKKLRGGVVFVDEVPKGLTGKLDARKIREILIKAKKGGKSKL
Genome polyprotein, sequence (P29990 2492-3391 limits assumed): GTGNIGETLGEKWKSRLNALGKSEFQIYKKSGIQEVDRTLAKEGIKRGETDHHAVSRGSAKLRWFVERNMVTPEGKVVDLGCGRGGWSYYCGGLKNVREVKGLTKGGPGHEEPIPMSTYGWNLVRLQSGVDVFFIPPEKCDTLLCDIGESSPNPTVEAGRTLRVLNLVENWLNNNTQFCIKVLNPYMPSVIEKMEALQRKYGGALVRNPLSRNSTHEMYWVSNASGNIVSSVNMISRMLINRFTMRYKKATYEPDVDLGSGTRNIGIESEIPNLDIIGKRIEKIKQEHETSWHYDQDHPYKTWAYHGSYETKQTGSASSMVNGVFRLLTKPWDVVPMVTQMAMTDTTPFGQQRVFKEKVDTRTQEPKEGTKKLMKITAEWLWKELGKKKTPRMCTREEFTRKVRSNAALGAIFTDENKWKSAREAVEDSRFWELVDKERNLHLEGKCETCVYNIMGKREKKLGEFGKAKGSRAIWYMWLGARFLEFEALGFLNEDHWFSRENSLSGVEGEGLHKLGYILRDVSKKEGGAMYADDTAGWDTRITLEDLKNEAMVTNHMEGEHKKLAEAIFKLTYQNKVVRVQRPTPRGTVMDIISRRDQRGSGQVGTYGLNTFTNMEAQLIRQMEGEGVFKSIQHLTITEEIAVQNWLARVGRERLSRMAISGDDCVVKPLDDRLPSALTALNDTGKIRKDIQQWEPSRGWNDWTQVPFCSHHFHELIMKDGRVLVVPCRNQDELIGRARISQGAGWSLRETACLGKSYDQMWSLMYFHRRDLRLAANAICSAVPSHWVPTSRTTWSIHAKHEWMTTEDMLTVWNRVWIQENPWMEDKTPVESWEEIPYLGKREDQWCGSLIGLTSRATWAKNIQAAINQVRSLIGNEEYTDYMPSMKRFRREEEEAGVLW
Paired box protein Pax-8, sequence (Q06710 whole entry): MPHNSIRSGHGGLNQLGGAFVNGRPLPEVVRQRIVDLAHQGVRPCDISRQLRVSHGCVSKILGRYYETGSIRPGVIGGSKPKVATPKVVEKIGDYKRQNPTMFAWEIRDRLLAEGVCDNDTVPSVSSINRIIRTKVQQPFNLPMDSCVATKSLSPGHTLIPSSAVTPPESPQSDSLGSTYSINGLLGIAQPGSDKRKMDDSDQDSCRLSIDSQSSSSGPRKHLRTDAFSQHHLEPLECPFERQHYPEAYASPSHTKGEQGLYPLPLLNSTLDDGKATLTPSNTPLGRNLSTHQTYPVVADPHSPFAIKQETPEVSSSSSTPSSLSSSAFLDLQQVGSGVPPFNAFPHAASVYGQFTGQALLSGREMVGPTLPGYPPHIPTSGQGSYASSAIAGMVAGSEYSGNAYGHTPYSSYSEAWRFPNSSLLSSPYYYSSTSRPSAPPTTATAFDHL

## O=[N+]([O-])c1c(Nc2cccc(O)c2)cc(Cl)c2nonc12
[1]
  EC50: 7.24 µM (active)
BJ [2]
  EC50: 2.6 µM (active)
Streptokinase A
  EC50: 5.58 µM (active)
BJ [3]
  EC50: 5.62 µM (inconclusive)
Large T antigen
  IC50: 47.8 µM (active)
[4]
  EC50: > 112 µM (not active)
[5]
  EC50: 4.14 µM (active)
BJ [6]
  EC50: 4.25 µM (inconclusive)
[7]
  EC50: 5.13 µM (active)
Streptococcus
  EC50: 10.5 µM (active)
HEK293
  AC50: 3.64 µM (active)
[8]
  IC50: 10.5 µM (active)
Vero
  CC50: 33.7 µM (active)
BJ [9]
  EC50: 585 nM (active)
Genome polyprotein
  IC50: 26.2 µM (active)
[10]
  AC50: 683 nM (active)
[11]
  AC50: 12.5 µM (active)
[12]
  AC50: 5.66 µM (active)
Fatty acid synthase [13]
  IC50: 5.29 µM (active)
Fatty acid synthase [14]
  IC50: 3.24 µM (active)
Paired box protein Pax-8
  AC50: 7.24 µM (active)
[15]
  AC50: 22.6 µM (active)

## Oc1ccc2oc3c(c2c1/C=N/Cc1ccncc1)CCCC3
Vero
  CC50: > 40 µM (active)
H9c2
  IC50: > 79 µM (inactive)

## O=C(c1cc(-c2ccc(Cl)cc2Cl)on1)N1CCCCCC1
[16]
  CC50: 39.3 µM (active)
Caspase-3
  IC50: 17.2 µM (active)
[17]
  IC50: 6.51 µM (active)
[18]
  IC50: 18.5 µM (active)
[19]
  IC50: 20.5 µM (active)

## Cc1cc(C=C2C(=O)c3ccccc3C2=O)c(C)n1C
Caspase-3
  IC50: 35.2 µM (active)
[17]
  IC50: 24.6 µM (active)
[18]
  IC50: 56.1 µM (active)
[19]
  IC50: 74.6 µM (active)
